Assay results reported in patent publication US6737383B1, “Herbicidal oxadiazolidines” (priority 1999, dated 2004).

Legend:
bedstraw = test: Test B pre/postemergence bedstraw; assay type: in vivo, Galium aparine
In short: (§1)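 Response is a visual 0-to-10 score relative to untreated plants, where 0 means no effect and 10 means complete control, taken twelve to sixteen days after application. Treatments went onto soil at planting and onto foliage of 1- to 4-leaf plants, using a surfactant-containing non-phytotoxic solvent.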

blackgrass = test: Test B pre/postemergence blackgrass; assay type: in vivo, Alopecurus myosuroides
In short: as §1

surinam grass = test: Test B pre/postemergence surinam grass; assay type: in vivo, Brachiaria decumbens
In short: as §1

cocklebur = test: Test B pre/postemergence cocklebur; assay type: in vivo, Xanthium strumarium
In short: as §1

corn = test: Test B pre/postemergence corn; assay type: in vivo, Zea mays
In short: as §1

crabgrass = test: Test B pre/postemergence crabgrass; assay type: in vivo, Digitaria sanguinalis
In short: as §1

morningglory = test: Test B pre/postemergence morningglory; assay type: in vivo, Ipomoea hederacea
In short: as §1

pigweed = test: Test B pre/postemergence pigweed; assay type: in vivo, Amaranthus retroflexus
In short: as §1

rape = test: Test B pre/postemergence rape; assay type: in vivo, Brassica napus
In short: as §1

sugar beet = test: Test B pre/postemergence sugar beet; assay type: in vivo, Beta vulgaris
In short: as §1

velvetleaf = test: Test B pre/postemergence velvetleaf; assay type: in vivo, Abutilon theophrasti
In short: as §1

wheat = test: Test B pre/postemergence wheat; assay type: in vivo, Triticum aestivum
In short: as §1

wild oat = test: Test B pre/postemergence wild oat; assay type: in vivo, Avena fatua
In short: as §1

purple nutsedge = test: Test B pre/postemergence purple nutsedge; assay type: in vivo, Cyperus rotundus
In short: as §1

smallflower flatsedge = test: Test B flood test smallflower flatsedge; assay type: in vivo, Cyperus difformis
In short: (§2)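 Plants were grown to the 2-leaf stage before treatment with test chemical, then held in a greenhouse for twelve to sixteen days. Injury was visually rated against untreated controls on a 0–10 scale, where 0 is no effect and 10 is complete control.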

duck salad = test: Test B flood test duck salad; assay type: in vivo, Heteranthera limosa
In short: as §2

[1] = Preemergence, Rate 62 g/ha, scale of 0 to 10 where 0 is no effect and 10 is complete control
[2] = Preemergence, Rate 250 g/ha, scale of 0 to 10 where 0 is no effect and 10 is complete control
[3] = Preemergence, Rate 500 g/ha, scale of 0 to 10 where 0 is no effect and 10 is complete control
[4] = Rate 62 g/ha, Postemergence, scale of 0 to 10 where 0 is no effect and 10 is complete control
[5] = Rate 125 g/ha, Postemergence, scale 0 to 10
[6] = Rate 125 g/ha, Preemergence, scale of 0 to 10 where 0 is no effect and 10 is complete control
[7] = Rate 500 g/ha, Postemergence, scale 0 to 10, 0 no effect, 10 complete control
[8] = Rate 62 g/ha, headed Pre-emergence (flood test species), scale 0 to 10 (0 no effect, 10 complete control)
[9] = Rate 125 g/ha, Pre-emergence, flood test species, scale 0 to 10 where 0 is no effect and 10 is complete control
[10] = Rate 250 g/ha, Pre-emergence, flood-test species, scale 0 to 10, 0 is no effect, 10 is complete control
[11] = Rate 500 g/ha, Pre-emergence, flood test species, scale 0 to 10 (0 no effect, 10 complete control)

CCN(C(=O)n1oc(=O)n(C)c1=O)C1CCCCC1 [Compound 228] was tested, and the “Bedstraw plant response rating” value (bedstraw; [1]) was 0, the “Bedstraw plant response rating” value (bedstraw; [2]) was 0 and the “Plant response rating, Bedstraw” value (bedstraw; [3]) was 0. For the same molecule, the “Bedstraw plant response rating” value (bedstraw; [4]) was 0, the “Bedstraw plant response rating” value (bedstraw; [5]) was 0 and the “Bedstraw plant response rating” value (bedstraw; [6]) was 0. For the same molecule, the “Plant response rating (0 to 10; 0 is no effect, 10 is complete control), Bedstraw” value (bedstraw; Rate 250 g/ha, Postemergence) was 0, the “Bedstraw plant response rating” value (bedstraw; [7]) was 2 and the “Blackgrass plant response rating” value (blackgrass; [1]) was 0. The “Blackgrass plant response rating” value (blackgrass; [2]) was 0, the “Plant response rating, Blackgrass” value (blackgrass; [3]) was 0 and the “Blackgrass plant response rating” value (blackgrass; [4]) was 0. For the same molecule, the “Blackgrass plant response rating” value (blackgrass; [5]) was 0, the “Blackgrass plant response rating” value (blackgrass; [6]) was 0 and the “Plant response rating (0 to 10; 0 is no effect, 10 is complete control), Blackgrass” value (blackgrass; Rate 250 g/ha, Postemergence) was 0. For the same molecule, the “Blackgrass plant response rating” value (blackgrass; [7]) was 0, the “B. signalgrass plant response rating” value (surinam grass; [1]) was 0 and the “B. signalgrass plant response rating” value (surinam grass; Preemergence, Rate 250 g/ha, scale 0 to 10, 0 is no effect, 10 is complete control) was 0. For the same molecule, the “Plant response rating, B. signalgrass” value (surinam grass; [3]) was 0, the “B. signalgrass plant response rating” value (surinam grass; [4]) was 0 and the “B. signalgrass plant response rating” value (surinam grass; Rate 125 g/ha, Postemergence, scale 0 (no effect) to 10 (complete control)) was 0. The “B. signalgrass plant response rating” value (surinam grass; [6]) was 0, the “Plant response rating (0 to 10; 0 is no effect, 10 is complete control), B. signalgrass” value (surinam grass; Rate 250 g/ha, Postemergence) was 0 and the “B. signalgrass plant response rating” value (surinam grass; [7]) was 0. The “Cocklebur plant response rating” value (cocklebur; [1]) was 0, the “Cocklebur plant response rating” value (cocklebur; [2]) was 0 and the “Plant response rating, Cocklebur” value (cocklebur; [3]) was 0. For the same molecule, the “Cocklebur plant response rating” value (cocklebur; [4]) was 0, the “Cocklebur plant response rating” value (cocklebur; [5]) was 0 and the “Cocklebur plant response rating” value (cocklebur; [6]) was 0. For the same molecule, the “Plant response rating (0 to 10; 0 is no effect, 10 is complete control), Cocklebur” value (cocklebur; Rate 250 g/ha, Postemergence) was 0, the “Cocklebur plant response rating” value (cocklebur; [7]) was 0 and the “Corn plant response rating” value (corn; [1]) was 0. The “Corn plant response rating” value (corn; [2]) was 0, the “Plant response rating, Corn” value (corn; [3]) was 0 and the “Corn plant response rating” value (corn; [4]) was 0. The “Corn plant response rating” value (corn; [5]) was 0, the “Corn plant response rating” value (corn; [6]) was 0 and the “Plant response rating (0 to 10; 0 is no effect, 10 is complete control), Corn” value (corn; Rate 250 g/ha, Postemergence) was 0. For the same molecule, the “Corn plant response rating” value (corn; [7]) was 2, the “Crabgrass plant response rating” value (crabgrass; [1]) was 0 and the “Crabgrass plant response rating” value (crabgrass; [2]) was 1. For the same molecule, the “Plant response rating, Crabgrass” value (crabgrass; [3]) was 2, the “Crabgrass plant response rating” value (crabgrass; [4]) was 0 and the “Crabgrass plant response rating” value (crabgrass; [5]) was 0. For the same molecule, the “Crabgrass plant response rating” value (crabgrass; [6]) was 0, the “Plant response rating (0 to 10; 0 is no effect, 10 is complete control), Crabgrass” value (crabgrass; Rate 250 g/ha, Postemergence) was 0 and the “Crabgrass plant response rating” value (crabgrass; [7]) was 0. For the same molecule, the “Morningglory plant response rating” value (morningglory; [1]) was 0, the “Morningglory plant response rating” value (morningglory; [2]) was 0 and the “Plant response rating, Morningglory” value (morningglory; [3]) was 0. The “Morningglory plant response rating” value (morningglory; [4]) was 2, the “Morningglory plant response rating” value (morningglory; [5]) was 3 and the “Morningglory plant response rating” value (morningglory; [6]) was 0. For the same molecule, the “Plant response rating (0 to 10; 0 is no effect, 10 is complete control), Morningglory” value (morningglory; Rate 250 g/ha, Postemergence) was 3, the “Morningglory plant response rating” value (morningglory; [7]) was 9 and the “Redroot pigweed plant response rating” value (pigweed; [1]) was 0. For the same molecule, the “Redroot pigweed plant response rating” value (pigweed; [2]) was 0, the “Plant response rating, Redroot pigweed” value (pigweed; [3]) was 0 and the “Redroot pigweed plant response rating” value (pigweed; [4]) was 0. For the same molecule, the “Redroot pigweed plant response rating” value (pigweed; [5]) was 0, the “Redroot pigweed plant response rating” value (pigweed; [6]) was 0 and the “Plant response rating (0 to 10; 0 is no effect, 10 is complete control), Redroot pigweed” value (pigweed; Rate 250 g/ha, Postemergence) was 0. The “Redroot pigweed plant response rating” value (pigweed; [7]) was 2, the “Rape plant response rating” value (rape; [1]) was 0 and the “Rape plant response rating” value (rape; [2]) was 0. The “Plant response rating, Rape” value (rape; [3]) was 0, the “Rape plant response rating” value (rape; [4]) was 0 and the “Rape plant response rating” value (rape; [5]) was 0. The “Rape plant response rating” value (rape; [6]) was 0, the “Plant response rating (0 to 10; 0 is no effect, 10 is complete control), Rape” value (rape; Rate 250 g/ha, Postemergence) was 0 and the “Rape plant response rating” value (rape; [7]) was 0. For the same molecule, the “Sugarbeets plant response rating” value (sugar beet; [1]) was 0, the “Sugarbeets plant response rating” value (sugar beet; [2]) was 0 and the “Plant response rating, Sugarbeets” value (sugar beet; [3]) was 0. The “Sugarbeets plant response rating” value (sugar beet; [4]) was 0, the “Sugarbeets plant response rating” value (sugar beet; [5]) was 0 and the “Sugarbeets plant response rating” value (sugar beet; [6]) was 0. The “Plant response rating (0 to 10; 0 is no effect, 10 is complete control), Sugarbeets” value (sugar beet; Rate 250 g/ha, Postemergence) was 3, the “Sugarbeets plant response rating” value (sugar beet; [7]) was 4 and the “Velvetleaf plant response rating” value (velvetleaf; [1]) was 0. For the same molecule, the “Velvetleaf plant response rating” value (velvetleaf; [2]) was 0, the “Plant response rating, Velvetleaf” value (velvetleaf; [3]) was 0 and the “Velvetleaf plant response rating” value (velvetleaf; [4]) was 0. For the same molecule, the “Velvetleaf plant response rating” value (velvetleaf; [5]) was 0, the “Velvetleaf plant response rating” value (velvetleaf; [6]) was 0 and the “Plant response rating (0 to 10; 0 is no effect, 10 is complete control), Velvetleaf” value (velvetleaf; Rate 250 g/ha, Postemergence) was 0. The “Velvetleaf plant response rating” value (velvetleaf; [7]) was 0, the “Wheat plant response rating” value (wheat; [1]) was 0 and the “Wheat plant response rating” value (wheat; [2]) was 0. The “Plant response rating, Wheat” value (wheat; [3]) was 0, the “Wheat plant response rating” value (wheat; [4]) was 0 and the “Wheat plant response rating” value (wheat; [5]) was 0. For the same molecule, the “Wheat plant response rating” value (wheat; [6]) was 0, the “Plant response rating (0 to 10; 0 is no effect, 10 is complete control), Wheat” value (wheat; Rate 250 g/ha, Postemergence) was 0 and the “Wheat plant response rating” value (wheat; [7]) was 0. The “Wild oats plant response rating” value (wild oat; [1]) was 0, the “Wild oats plant response rating” value (wild oat; [2]) was 0 and the “Plant response rating, Wild oats” value (wild oat; [3]) was 0. The “Wild oats plant response rating” value (wild oat; [4]) was 0, the “Wild oats plant response rating” value (wild oat; [5]) was 0 and the “Wild oats plant response rating” value (wild oat; [6]) was 0. For the same molecule, the “Plant response rating (0 to 10; 0 is no effect, 10 is complete control), Wild oats” value (wild oat; Rate 250 g/ha, Postemergence) was 0, the “Wild oats plant response rating” value (wild oat; [7]) was 0 and the “Nutsedge plant response rating” value (purple nutsedge; [1]) was 0. For the same molecule, the “Nutsedge plant response rating” value (purple nutsedge; [2]) was 0, the “Plant response rating, Nutsedge” value (purple nutsedge; [3]) was 0 and the “Nutsedge plant response rating” value (purple nutsedge; [4]) was 0. The “Nutsedge plant response rating” value (purple nutsedge; [5]) was 0, the “Nutsedge plant response rating” value (purple nutsedge; [6]) was 0 and the “Plant response rating (0 to 10; 0 is no effect, 10 is complete control), Nutsedge” value (purple nutsedge; Rate 250 g/ha, Postemergence) was 0. For the same molecule, the “Nutsedge plant response rating” value (purple nutsedge; [7]) was 0, the “S. Flatsedge plant response rating” value (smallflower flatsedge; [8]) was 0 and the “S. Flatsedge plant response rating” value (smallflower flatsedge; [9]) was 0. The “S. Flatsedge plant response rating” value (smallflower flatsedge; [10]) was 0, the “S. Flatsedge plant response rating” value (smallflower flatsedge; [11]) was 0 and the “Ducksalad plant response rating” value (duck salad; [8]) was 0. The “Ducksalad plant response rating” value (duck salad; [9]) was 0, the “Ducksalad plant response rating” value (duck salad; [10]) was 0 and the “Ducksalad plant response rating” value (duck salad; [11]) was 0.
